According to patent publication US20190387739A1, “HERBICIDAL COMBINATION CONTAINING TRIAFAMONE AND INDAZIFLAM” (Bayer CropScience Aktiengesellschaft, priority 2016, published 2019):

Tests used:
Assay type in all cases: in vivo
Lolium rigidum = test: Greenhouse post-emergence herbicidal effect against Lolium rigidum; settings: 216 h, 9 DAA, read-out: % Efficacy; for Emax at 10 g/ha: individual application 10 g of AS/ha; for Emax at 20 g/ha: individual application 20 g of AS/ha
Protocol: (§1) Post-emergence action against weeds
(§2) Seeds or rhizome pieces of mono- and dicotyledonous harmful plants and of crop plants were placed in sandy loam in plastic pots having a diameter of 4 cm, covered with soil and cultivated in a greenhouse under good growth conditions.
(§3) Ten to twenty days after sowing, the test plants were treated at the one- to three-leaf stage. The herbicide/active compound combinations according to the invention (mixture applications) formulated as suspensions and, in parallel tests, the correspondingly formulated individual active compounds (individual applications) were then sprayed onto the green parts of the plants in various dosages at a water application rate of 300 I/ha (converted).
(§4) After the test plants had been kept in the greenhouse under optimum growth conditions for a certain period of time (DAA, days after application), the herbicidal activity was assessed visually by comparison of treated and untreated plants. The percentages mean: 0%=no herbicidal activity, 100%=the plants die off completely.
(§5) The percentages from the treatments with the herbicides alone (individual applications) and with the combinations according to the invention (mixture applications) were employed to calculate interactions using the method of Colby. When the observed efficacies of the mixture applications exceed the formal sum of the values of the tests with individual applications, they also exceed the expected value according to Colby, which is calculated using the formula below (cf. S. R. Colby; in Weeds 15 (1967) pp. 20 to 22):
(§6) Here: • A, B=activity of component A (triafamone) or B (indaziflam) in percent at a dosage of a and b, respectively, in g of AS/ha (gram of active substance per hectare). • exp. expected value in % at a dosage of a+b g of ai/ha. • b) Results
(§7) The abbreviations in the tables below have the following meanings: • DAA=days after application • g of AS/ha=grams of active substance per hectare • % efficacy=herbicidal effect in percent • meas.=measured values • exp.=expected values according to Colby (calculation: see above) • syn.%=difference (%) of measured value from expected value (%) (measured value minus expected value)/

Alopecurus myosuroides = test: Greenhouse post-emergence herbicidal effect against Alopecurus myosuroides; settings: 408 h, 17 DAA, read-out: % Efficacy; for Emax at 5 g/ha: individual application 5 g of AS/ha
Protocol: as §1, §2, §3, §4, §5, §6, §7

Viola tricolor = test: Greenhouse post-emergence herbicidal effect against Viola tricolor; settings: 408 h, 17 DAA, read-out: % Efficacy; for Emax at 5 g/ha: individual application 5 g of AS/ha
Protocol: as §1, §2, §3, §4, §5, §6, §7

Hordeum murinum = test: Greenhouse post-emergence herbicidal effect against Hordeum murinum; settings: 408 h, 17 DAA, read-out: % Efficacy; for Emax at 20 g/ha: individual application 20 g of AS/ha
Protocol: as §1, §2, §3, §4, §5, §6, §7

Avena fatua = test: Greenhouse post-emergence herbicidal effect against Avena fatua; settings: 408 h, 17 DAA, read-out: % Efficacy
Protocol: as §1, §2
(§8) Ten to twenty days after sowing, the test plants were treated at the one- to three-leaf stage. […]
(§9) After the test plants had been kept in the greenhouse under optimum growth conditions for a certain period of time (DAA, days after application), the herbicidal activity was assessed visually by comparison of treated and untreated plants. […]
as §5, with “22): […]” for “22):”

Triticum aestivum = test: Greenhouse post-emergence herbicidal effect against Triticum aestivum; settings: 216 h, 9 DAA, read-out: % Efficacy; for Emax at 5 g/ha: individual application 5 g of AS/ha; for Emax at 10 g/ha: individual application 10 g of AS/ha; for Emax at 20 g/ha: individual application 20 g of AS/ha
Protocol: as §1, §2, §3, §4, §5, §6, §7

Glycine max = test: Greenhouse post-emergence herbicidal effect against Glycine max; settings: 408 h, 17 DAA, read-out: % Efficacy; for Emax at 10 g/ha: individual application 10 g of AS/ha
Protocol: as §1, §2, §3, §4, §5, §6, §7

Zea mays = test: Greenhouse post-emergence herbicidal effect against Zea mays; settings: 408 h, 17 DAA, read-out: % Efficacy; for Emax at 10 g/ha: individual application 10 g of AS/ha
Protocol: as §1, §2, §3, §4, §5, §6, §7

[1] = tested on: mono- and dicotyledonous harmful plants and crop plants; test: Greenhouse trials, discussion of the results over all test plants; settings: at the dosages tested, post-emergence
Protocol: as §1, §2, §8, §9
as §5, with “22): […]” for “22):”

[2] = individual application 10 g of AS/ha
[3] = individual application 20 g of AS/ha
[4] = individual application 5 g of AS/ha
[5] = individual application 2.5 g of AS/ha

SMILES	Emax at 10 g/ha (Lolium rigidum) [%]	Emax at 20 g/ha (Lolium rigidum) [%]	Emax at 5 g/ha (Alopecurus myosuroides) [%]	Emax at 5 g/ha (Viola tricolor) [%]	Emax at 20 g/ha (Hordeum murinum) [%]	Emax at 5 g/ha (Triticum aestivum) [%]	Emax at 10 g/ha (Triticum aestivum) [%]	Emax at 20 g/ha (Triticum aestivum) [%]	Emax at 10 g/ha (Glycine max) [%]	Emax at 10 g/ha (Zea mays) [%]	further results
Cc1ccc2c(c1)[C@H](Nc1nc(N)nc(C(C)F)n1)[C@@H](C)C2 (stereo partly drawn) [indaziflam]	63	70	15	80	40	23	23	48	73	0	Emax at 10 g/ha (Alopecurus myosuroides; [2]): 60%; Emax at 20 g/ha (Alopecurus myosuroides; [3]): 75%; Emax at 5 g/ha (Avena fatua; [4]): 10%; Emax at 40 g/ha (Triticum aestivum; individual application 40 g of AS/ha): 63%; Emax at 5 g/ha (Glycine max; [4]): 50%; Emax at 20 g/ha (Zea mays; [3]): 25%
COc1nc(OC)nc(C(=O)c2cccc(F)c2N(C)S(=O)(=O)C(F)F)n1 [triafamone]	0	18	50	0	0	0	0	13	0	0	Emax at 2.5 g/ha (Lolium rigidum; [5]): 0%; Emax at 5 g/ha (Lolium rigidum; [4]): 0%; Emax at 2.5 g/ha (Alopecurus myosuroides; [5]): 25%; herbicidal efficacy as individual herbicide [1]: frequently ineffective; Emax at 2.5 g/ha (Viola tricolor; [5]): 0%; Emax at 10 g/ha (Viola tricolor; [2]): 0%; Emax at 2.5 g/ha (Hordeum murinum; [5]): 0%; Emax at 5 g/ha (Hordeum murinum; [4]): 0%; Emax at 10 g/ha (Avena fatua; [2]): 0%; Emax at 2.5 g/ha (Triticum aestivum; [5]): 0%; Emax at 2.5 g/ha (Glycine max; [5]): 0%; Emax at 2.5 g/ha (Zea mays; [5]): 0%; Emax at 5 g/ha (Zea mays; [4]): 0%
